Laboratory results from US9833497B2, “Human originated EGF domain proteins and use of the same” (CHENGDU SOURCEBIO LIMITED-LIABILITY COMPANY, priority 2013, dated 2017).

How the values were obtained:
Assay type in all cases: cell-based
Moraxella catarrhalis = experiment: MIC against Gram-negative bacteria: Moraxella catarrhalis; conditions: 10 h cultivation at 37° C., 5×10^5 CFU/mL, two-fold serial dilution
Outline: (§1)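 Broth microdilution, LB medium, final inoculum 5×10^5 CFU/mL from McFarland 0.5 cultures. Recombinant human EGF domain proteins tested in two-fold steps, n=3. MIC: lowest concentration, no growth.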

Klebsiella pneumonia = experiment: MIC against Gram-negative bacteria: Klebsiella pneumonia; conditions: 10 h cultivation at 37° C., 5×10^5 CFU/mL, two-fold serial dilution
Outline: as §1

Serratia marcescens = experiment: MIC against Gram-negative bacteria: Serratia marcescens; conditions: 10 h cultivation at 37° C., 5×10^5 CFU/mL, two-fold serial dilution
Outline: as §1

Pseudomonas aeruginosa = experiment: MIC against Gram-negative bacteria: Pseudomonas aeruginosa; conditions: 10 h cultivation at 37° C., 5×10^5 CFU/mL, two-fold serial dilution
Outline: as §1

Proteus vulgaris = experiment: MIC against Gram-negative bacteria: Proteus vulgaris; conditions: 10 h cultivation at 37° C., 5×10^5 CFU/mL, two-fold serial dilution
Outline: as §1

Enterobacter cloacae = experiment: MIC against Gram-negative bacteria: Enterobacter cloacae; conditions: 10 h cultivation at 37° C., 5×10^5 CFU/mL, two-fold serial dilution
Outline: as §1

E. coli BL21 = experiment: MIC against Gram-negative bacteria: E. coli BL21; conditions: 10 h cultivation at 37° C., 5×10^5 CFU/mL, two-fold serial dilution
Outline: as §1

E. coli DH5α = experiment: Antibacterial activity: MIC and growth curve against E. coli DH5α in 96-well plate; conditions: minimal inhibitory concentration against E. coli DH5α; 96-well plate, 5×10^5 CFU/mL, 37° C., judged after 8 h
Outline: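 MIC taken as lowest protein level with no bacterial growth, tracked by A600 every 30 min during 37 °C, 175 rpm culture. Two-fold protein series 50-12.5 μg/mL final, triplicate wells, against 5×10^5 CFU/mL of LB-washed mid-log cells.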

Aeromonas hydrophila = experiment: MIC against Gram-negative bacteria: Aeromonas hydrophila; conditions: 10 h cultivation at 37° C., 5×10^5 CFU/mL, two-fold serial dilution
Outline: as §1

Citrobacter diversus = experiment: MIC against Gram-negative bacteria: Citrobacter diversus; conditions: 10 h cultivation at 37° C., 5×10^5 CFU/mL, two-fold serial dilution
Outline: as §1

Proteus mirabilis = experiment: MIC against Gram-negative bacteria: Proteus mirabilis; conditions: 10 h cultivation at 37° C., 5×10^5 CFU/mL, two-fold serial dilution
Outline: as §1

Substance | MIC M. catarrhalis (Moraxella catarrhalis) | MIC K. pneumonia (Klebsiella pneumonia) | MIC S. marcescens (Serratia marcescens) | MIC P. aeruginosa (Pseudomonas aeruginosa) | MIC P. vulgaris (Proteus vulgaris) | MIC E. cloacae (Enterobacter cloacae) | MIC E. coli BL21 (E. coli BL21) | MIC (E. coli DH5α) | MIC A. hydrophila (Aeromonas hydrophila) | MIC C. diversus (Citrobacter diversus) | MIC P. mirabilis (Proteus mirabilis)
PRT1115 (PTLPCEANPCLNGGTCRAAGGVSECICNARFSGQFCE; listed as Homo sapiens) | 12.5 µg/mL | 50 µg/mL | 12.5 µg/mL | 12.5 µg/mL | 12.5 µg/mL | 12.5 µg/mL | 25 µg/mL | 50 µg/mL | 12.5 µg/mL | 12.5 µg/mL | 12.5 µg/mL
PRT1116 (DIDECASRPCHHGATCRNLADRYECHCPLGYAGVTCE; listed as Homo sapiens) | 25 µg/mL | 12.5 µg/mL | 12.5 µg/mL | 25 µg/mL | 25 µg/mL | 25 µg/mL | 12.5 µg/mL | 25 µg/mL | 25 µg/mL | 12.5 µg/mL | 50 µg/mL
PRT1117 (EVDECASAPCLHGGSCLDGVGSFRCVCAPGYGGTRCQ; listed as Homo sapiens) | 12.5 µg/mL | 12.5 µg/mL | 25 µg/mL | 50 µg/mL | 12.5 µg/mL | 50 µg/mL | 12.5 µg/mL | 50 µg/mL | 12.5 µg/mL | 25 µg/mL | 25 µg/mL
PRT1119 (EVLECASAPCEHNASCLEGLGSFRCLCWPGYSGELCE; listed as Homo sapiens) | 25 µg/mL | 25 µg/mL | 50 µg/mL | 50 µg/mL | 25 µg/mL | 12.5 µg/mL | 25 µg/mL | 100 µg/mL | 25 µg/mL | 50 µg/mL | 12.5 µg/mL
PRT1120 (DEDECASSPCQHGGRCLQRSDPALYGGVQAAFPGAFSFRHAAGFLCHCPPGFEGADCG; listed as Homo sapiens) | 12.5 µg/mL | 50 µg/mL | 12.5 µg/mL | 25 µg/mL | 12.5 µg/mL | 25 µg/mL | 12.5 µg/mL | 25 µg/mL | 12.5 µg/mL | 50 µg/mL | 50 µg/mL
PRT1122 (DVDECLSDPCLHGGTCSDTVAGYICRCPETWGGRDCS; listed as Homo sapiens) | 50 µg/mL | 12.5 µg/mL | 12.5 µg/mL | 50 µg/mL | 50 µg/mL | 50 µg/mL | 12.5 µg/mL | 50 µg/mL | 25 µg/mL | 12.5 µg/mL | 12.5 µg/mL
PRT1123 (QLTGCQGHTCPLAATCIPIFESGVHSYVCHCPPGTHGPFCG; listed as Homo sapiens) | 25 µg/mL | 12.5 µg/mL | 12.5 µg/mL | 25 µg/mL | 25 µg/mL | 25 µg/mL | 50 µg/mL | 25 µg/mL | 50 µg/mL | 12.5 µg/mL | 50 µg/mL
PRT1125 (LCDQCVTSPGCLHGLCGEPGQCICTDGWDGELCD; listed as Homo sapiens) | 12.5 µg/mL | 12.5 µg/mL | 25 µg/mL | 12.5 µg/mL | 12.5 µg/mL | 12.5 µg/mL | 12.5 µg/mL | 25 µg/mL | 12.5 µg/mL | 12.5 µg/mL | 12.5 µg/mL
PRT1126 (DVRACSSAPCANNRTCVSLDDGLYECSCAPGYSGKDCQ; listed as Homo sapiens) | 12.5 µg/mL | 12.5 µg/mL | 50 µg/mL | 25 µg/mL | 12.5 µg/mL | 25 µg/mL | 50 µg/mL | 25 µg/mL | 25 µg/mL | 50 µg/mL | 50 µg/mL
PRT1127 (KDGPCVINGSPCQHGGTCVDDEGRASHASCLCPPGFSGNFCE; listed as Homo sapiens) | 12.5 µg/mL | 50 µg/mL | 25 µg/mL | 12.5 µg/mL | 50 µg/mL | 12.5 µg/mL | 50 µg/mL | 12.5 µg/mL | 50 µg/mL | 25 µg/mL | 25 µg/mL
PRT1128 (VANSCTPNPCENDGVCTDIGGDFRCRCPAGFIDKTCS; listed as Homo sapiens) | 50 µg/mL | 50 µg/mL | 12.5 µg/mL | 12.5 µg/mL | 50 µg/mL | 12.5 µg/mL | 50 µg/mL | 12.5 µg/mL | 50 µg/mL | 12.5 µg/mL | 12.5 µg/mL
PRT1129 (PVTNCASSPCQNGGTCLQHTQVSYECLCKPEFTGLTCV; listed as Homo sapiens) | 12.5 µg/mL | 12.5 µg/mL | 12.5 µg/mL | 50 µg/mL | 12.5 µg/mL | 12.5 µg/mL | 12.5 µg/mL | 50 µg/mL | 25 µg/mL | 12.5 µg/mL | 12.5 µg/mL
PRT1130 (DDCSSHCDLAHGCCAPDGSCRCDPGWEGLHCE; listed as Homo sapiens) | 50 µg/mL | 12.5 µg/mL | 25 µg/mL | 50 µg/mL | 12.5 µg/mL | 50 µg/mL | 12.5 µg/mL | 12.5 µg/mL | 12.5 µg/mL | 25 µg/mL | 25 µg/mL
PRT1131 (RMPGCQHGTCHQPWQCICHSGWAGKFCD; listed as Homo sapiens) | 50 µg/mL | 12.5 µg/mL | 12.5 µg/mL | 50 µg/mL | 50 µg/mL | 50 µg/mL | 12.5 µg/mL | 50 µg/mL | 25 µg/mL | 12.5 µg/mL | 12.5 µg/mL
